Reference: publication PMC11005681, “Growth‐Coupled Evolutionary Pressure Improving Epimerases for D‐Allulose Biosynthesis Using a Biosensor‐Assisted In Vivo Selection Platform” (Advanced Science, 2024)

Assays:
[1] = target: T1, ADAE (Agrobacterium sp. SUL3 D-allulose 3-epimerase) (Agrobacterium sp. SUL3, UniProt Z9QCC6USU8); test: X-ray crystal structure of complex; assay type: binding; conditions: active site with Mg2+; PDB id not printed in main text
T1 construct: homotetramer; each subunit an (alpha/beta)8 barrel with Mg2+ site
T1 sequence (Z9QCC6USU8 1-284): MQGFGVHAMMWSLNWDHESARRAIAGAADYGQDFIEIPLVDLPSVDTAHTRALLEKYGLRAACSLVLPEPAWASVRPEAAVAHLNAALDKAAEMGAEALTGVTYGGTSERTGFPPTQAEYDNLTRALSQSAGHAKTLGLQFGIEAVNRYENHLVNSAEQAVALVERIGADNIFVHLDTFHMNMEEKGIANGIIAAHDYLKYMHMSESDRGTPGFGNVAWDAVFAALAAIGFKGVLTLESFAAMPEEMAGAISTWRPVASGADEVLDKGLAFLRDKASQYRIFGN

[2] = target: Agrobacterium sp. SUL3 D-allulose 3-epimerase (Agrobacterium sp. SUL3); test: crystal structure; X-ray crystal structures of ADAE alone and in complex with D-fructose or D-allulose; oligomer seen in the structure

Row | stoichiometry N [2] | Compound | X-ray crystal structure of complex [1]
1 | – | O=C(CO)[C@H](O)[C@H](O)[C@H](O)CO [D-allulose] | X-ray crystal structures of ADAE alone and in complex with different ligands, including D‐fructose and D‐allulose
2 | – | OCC1(O)OC[C@@H](O)[C@@H](O)[C@@H]1O (stereo partly drawn) [D-fructose] | X-ray crystal structures of ADAE alone and in complex with different ligands, including D‐fructose and D‐allulose
3 | 4 | Agrobacterium sp. SUL3 D-allulose 3-epimerase (enzyme) | –
